Type in all cases: cell-based
The subject of experiment [1] is human B-cell lymphoma cell lines (DOHH2 and OLI-Ly3). The experiment is described as follows: Anti-tumor effects in combination with Navitoclax, human B-cell lymphoma cell lines. The following applies: combination with Compound B 1000 nmol/L, DOHH2 and OLI-Ly3, 48 hours. The protocol: (§1) The anti-tumor effects of the STING agonistic compounds pertaining to the present invention and combination thereof with anti-neoplastic agents were evaluated on several human acute myeloid leukemia cell lines (KG-1α, THP-1 and CMK) and human B-cell lymphoma cell lines (DOHH2 and OLI-Ly3) below.
The cell lines above were suspended in medium (RPMI 1640 containing 10% FBS and 1% Penicillin-Streptomycin), respectively, and seeded into 96-well plates at a density of 2.5 to 5×10^4 cells/well. Immediately after seeding, mediums containing Compound B prepared, respectively, such that the final concentrations after addition to the mediums become 0, 10, 30, 100, 300, and 1000 nmol/L and anti-neoplastic agents prepared such that those become the following final concentrations, respectively, were added to each well and mixed well. […]
After culturing the cell lines for 48 hours at 37° C. and 5% CO2, 10 μL of Cell Counting Kit-8 (Dojindo) was added to each well, and after incubation for 60 minutes, the absorbance (450 nm) in each well was measured using a microplate reader. […] In the figures, the “signal intensity” on the vertical axis represents the absorbance value (450 nm), and the lower the value, the higher the anti-tumor effect.

Experiment [2] relates to human acute myeloid leukemia cell lines (KG-1α, THP-1 and CMK). The experiment is described as follows: Anti-tumor effects in combination with anti-neoplastic agents, human acute myeloid leukemia cell lines. The following applies: combination with Compound B 10 to 1000 nmol/L, 48 hours, absorbance 450 nm. The protocol:
as §1
The cell lines above were suspended in medium (RPMI 1640 containing 10% FBS and 1% Penicillin-Streptomycin), respectively, and seeded into 96-well plates at a density of 2.5 to 5×10^4 cells/well. Immediately after seeding, mediums containing Compound B prepared, respectively, such that the final concentrations after addition to the mediums become 0, 10, 30, 100, 300, and 1000 nmol/L and anti-neoplastic agents prepared such that those become the following final concentrations, respectively, were added to each well and mixed well. As a control, DMSO solution prepared such that the final concentration becomes 0.10% after addition to the medium was added thereto, separately. • Venetoclax (final concentrations: 0, 1, 10, 100, 1000, and 10000 nmol/L, respectively), • Cytarabine (final concentrations: 0, 1, 10, 100, 1000, and 10000 nmol/L, respectively), • Azacitidine (final concentrations: 0, 1, 10, 100, 1000, and 10000 nmol/L, respectively), and • Navitoclax (final concentrations: 0, 50, 500, and 5000 nmol/L, respectively) (the concentration of Compound B in combination with Navitoclax is 1000 nmol/L).
After culturing the cell lines for 48 hours at 37° C. and 5% CO2, 10 μL of Cell Counting Kit-8 (Dojindo) was added to each well, and after incubation for 60 minutes, the absorbance (450 nm) in each well was measured using a microplate reader. FIGS. 13, 14, and 15 show results thereof, respectively. In the figures, the “signal intensity” on the vertical axis represents the absorbance value (450 nm), and the lower the value, the higher the anti-tumor effect.

Experiment [3] has as its system IRF (Interferon Regulatory Factor) pathway. The experiment is described as follows: Effect on IRF (Interferon Regulatory Factor) pathway, Quanti-luc reporter cells. Particulars: activation of the IRF pathway, luminescence, about 24 hours incubation. The protocol:
The cells mainly described at lines 12-20 of the right column on page 183 in Mol Immunol. 2017, Vol. 90, p. 182-189 were suspended in RPMI medium to prepare 2×10^6 cells/mL of cell suspension. 50 μL of the cell suspensions were dispensed into a 96-well plate, to which 50 μL of 6 to 20,000 nmol/L compound solutions were added. After adding the compound, the mixture thereof was incubated at 37° C. for about 24 hours. After incubation, 10 μL of cell suspensions were collected from each well, which were mixed with 50 μL of Quanti-luc (Invivogen). Then, the activation of the IRF pathway was measured by detecting luminescence using a microplate reader (Molecular Devices).

In experiment [4] the test system is human acute myeloid leukemia cell lines. Kind of experiment: Anti-tumor effect on human acute myeloid leukemia cell lines (Cell Counting Kit-8). The following applies: administration alone, 100 to 1000 nmol/L, 48 hours. The protocol:
The compound prepared in Example 3 (Compound B) was evaluated for anti-tumor activity against several human acute myeloid leukemia cell lines shown in the table of FIG. 13.
The cell lines above were suspended in medium (RPMI 1640 containing 10% FBS and 1% Penicillin-Streptomycin), respectively, and seeded into 96-well plates at a density of 5.0×10^4 cells/well. Immediately after seeding, mediums containing Compound B and Vehicle (0.1% at the final concentration of DMSO solution after addition to the medium), respectively, were added to each well and mixed well. The final concentration of Compound B after addition to the medium was prepared to be 100 to 1000 nmol/L, respectively. After culturing the cell lines for 48 hours at 37° C. and 5% CO2, 10 μL of Cell Counting Kit-8 (Dojindo) was added to each well, and after incubation for 60 minutes, the absorbance (450 nm) in each well was measured using a microplate reader. EC50 value was calculated from the absorbance value using Graphpad prism (Graphpad Software) to evaluate the effect of Compound B on cell proliferation. […] Relative cell count was calculated according to the following formula. Relative minimum cell count represents the minimum value of the above values.
Relative cell count (%)=(Absorbance (450 nm) in addition of Compound B−blank)/(Absorbance (450 nm) in addition of Vehicle (0.1% DMSO)−blank)×100 [Formula 1]
(In general: Formazan colour is commonly taken as a measure of viable cells.)

Consider `CC(=O)c1cc(-c2ncc(-c3cn[nH]c3)c3onc(N)c23)c(F)cc1N` [Example 3, 1-(2-amino-5-(3-amino-7-(1H-pyrazol-4-yl)isoxazolo[4,5-c]pyridin-4-yl)-4-fluorophenyl)ethan-1-one], for which, in experiment [1], the “anti-tumor activity of Navitoclax” value is “enhanced”. Besides, in experiment [2], the “anti-tumor activity of Azacitidine” value is on record as “enhanced”, the “anti-tumor activity of Cytarabine” value is listed as “enhanced” and the “anti-tumor activity of Venetoclax” value is recorded as “enhanced”. Further, in experiment [3], the EC50 was found to be 40 nM. Besides, in experiment [4], the “anti-tumor effect (cell proliferation)” value was “significant anti-tumor effect”.

Broadly, the EC50 is the concentration that produces a half-maximal response. Low readings indicate a more potent agent, high ones a less potent agent.

(Values after patent publication US20230141284A1, “CANCER THERAPEUTIC METHOD” (ONO PHARMACEUTICAL CO., LTD., priority 2020, published 2023).)
